Laboratory results taken from article PMC10460844, “Real‐Time Monitoring of Multitarget Antimicrobial Mechanisms of Peptoids Using Label‐Free Imaging with Optical Diffraction Tomography” (Advanced Science, 2023).
Numbered stars: 1 amine (or outer) side, 2 acyl side, 3 side chain; on linkers, the order of the positions; unused ones are H or OH. Square brackets hold non-standard residues; d marks the D form. Peptide text beside a SMILES is read from it. Gly(N(CH2)2(3-indolyl)) = O=C(O)CNCCc1c[nH]c2ccccc12; Nspe = C[C@H](NCC(=O)O)c1ccccc1; X1 = O=C(CN(CCCCO)[*:1])[*:2]; Nphe = O=C(O)CNCc1ccccc1; Nlys = NCCCCNCC(=O)O

Columns and labels:
rat erythrocytes = assay: Hemolysis assay; assay type: cell-based; settings: for HC10 / HC50: pH 7.4
Protocol: The hemolysis assay was performed using rat erythrocytes in phosphate‐buffered saline (PBS), as reported by Mendes et al.^[ [45] ^] Animal studies were approved by the Laboratory Animal Resource Center of Gwangju Institute of Science and Technology. Blood was collected from a 13‐week‐old male Sprague‐Dawley rat in tubes containing 158 USP units of sodium heparin to prevent coagulation and centrifuged at 1000 rpm for 10 min at 4 °C. Plasma was removed carefully and erythrocyte pellets were washed three times with PBS (35 mM phosphate, pH 7.4, 150 mM NaCl). Next, 150 µL of a 10% erythrocyte suspension was mixed with 50 µL of serially diluted peptoids (0–100 µM) in a 96‐well black polypropylene plates (Greiner, Kremsmünster, Austria). Untreated erythrocytes and cells lysed by the addition of 1% Triton X‐100 were used as negative and positive controls, respectively, with the 1% Triton X‐100‐treated wells being accepted to represent 100% hemolysis. The reaction mixture was incubated at 37 °C for 60 min, and the plates were centrifuged at 1000 rpm for 15 min. Aliquots (150 µL) of the supernatant were transferred to fresh 96‐well plates, and the absorbance of each well was measured at 540 nm using a microplate reader. Hemolysis induced by peptoids was calculated as the percentage value of Triton X‐100 lysed cells. The percentage of hemolysis by the extracts was calculated according to the following formula: % hemolysis = [(Abs 540 nm in the peptoid solution – Abs 540 nm in PBS) / (Abs 540 nm in 1% Triton X‐100 – Abs 540 nm in PBS)] × 100. HC10 and HC50 were defined as the peptoid concentrations that caused 10% and 50% hemolysis in rat erythrocytes, respectively. H max indicates the percentage of hemolysis observed at the maximum peptoid concentration, 100 µM throughout this study.

[1] = Analytical reversed-phase HPLC elution (hydrophobicity); assay type: physicochemical; settings: Table S1; analytical RP-HPLC, SunFire C18, water/ACN + 0.1% TFA, 5 to 100% B linear over 30 min, 1 mL/min, UV 220 nm; approximate comparison of hydrophobicity
Protocol: 7. HPLC chromatogram, retention time (tR), and LC-MS data
HPLC analysis of peptoids was conducted using a Waters HPLC system equipped with a Waters 2489 UV/Visible Detector, 1525 Binary HPLC Pump, 2707 Autosampler, 5CH column oven, and a C18 column (SunFire C18, 4.6 × 250 mm, 5 μm; Waters Corp., Milford, MA, USA). The mobile phases were deionized water (A, with + 0.1% TFA) and acetonitrile (ACN; B, with + 0.1% TFA). Before sample injection, the column was conditioned with 5% B for 10 min. Then, the mobile phase was maintained at 5% B for 2 min, followed by increasing B to 100% using a linear gradient over 30 min. At this point, 100% B was maintained for 5 additional min. The flow rate of the mobile phase was 1 mL/min. The sample was detected by measuring absorbance at 220 nm. […]

SMILES | Hmax (100 µM) (rat erythrocytes) | HC10 (rat erythrocytes) | HC50 (rat erythrocytes) | HPLC elution [1]
NCCCCNCC(=O)N(CC(=O)N(CC(=O)N(CCCCN)CC(=O)N(CC(=O)N(CC(=O)N(CCCCN)CC(=O)N(CC(=O)N(CC(=O)N(CCCCN)CC(=O)N(CC(=O)N(CC(N)=O)Cc1ccccc1)Cc1ccccc1)Cc1ccccc1)Cc1ccccc1)Cc1ccccc1)Cc1ccccc1)Cc1ccccc1)Cc1ccccc1 [peptoid 2, reference compound] (H-[Nlys][Nphe][Nphe][Nlys][Nphe][Nphe][Nlys][Nphe][Nphe][Nlys][Nphe][Nphe]-NH2) | 17.7±1.1% | 20.4 µM | > 100.0 µM | 50.7 % MeCN
C[C@@H](c1ccccc1)N(CC(N)=O)C(=O)CN(C(=O)CN(CCCCN)C(=O)CN(C(=O)CN(C(=O)CN(CCCCN)C(=O)CN(C(=O)CN(C(=O)CN(CCCCN)C(=O)CN(C(=O)CN(C(=O)CN(CCCCN)C(=O)CNCCc1c[nH]c2ccccc12)[C@@H](C)c1ccccc1)[C@@H](C)c1ccccc1)[C@@H](C)c1ccccc1)[C@@H](C)c1ccccc1)[C@@H](C)c1ccccc1)[C@@H](C)c1ccccc1)[C@@H](C)c1ccccc1 [peptoid 3] | 100.5±9.9% | 6.3 µM | 13.9 µM | 55.8 % MeCN
C[C@@H](c1ccccc1)N(CC(N)=O)C(=O)CN(CCCCN)C(=O)CN(C(=O)CN(CCCCN)C(=O)CN(CCCCN)C(=O)CN(C(=O)CN(C(=O)CN(CCCCN)C(=O)CN(C(=O)CN(C(=O)CNCCCCN)[C@@H](C)c1ccccc1)[C@@H](C)c1ccccc1)[C@@H](C)c1ccccc1)[C@@H](C)c1ccccc1)[C@@H](C)c1ccccc1 [peptoid 50] | – | – | – | 46.1 % MeCN
C[C@@H](c1ccccc1)N(CC(N)=O)C(=O)CN(CCCCN)C(=O)CN(C(=O)CN(C(=O)CN(CCCCN)C(=O)CN(C(=O)CN(CCCCN)C(=O)CN(CCCCN)C(=O)CN(C(=O)CN(C(=O)CNCCCCN)[C@@H](C)c1ccccc1)[C@@H](C)c1ccccc1)[C@@H](C)c1ccccc1)[C@@H](C)c1ccccc1)[C@@H](C)c1ccccc1 [peptoid 51] | – | – | – | 45.3 % MeCN
C[C@@H](c1ccccc1)N(CC(N)=O)C(=O)CN(CCCCN)C(=O)CN(C(=O)CN(C(=O)CN(CCCCN)C(=O)CN(C(=O)CN(C(=O)CN(CCCCN)C(=O)CN(C(=O)CN(CCCCN)C(=O)CNCCCCN)[C@@H](C)c1ccccc1)[C@@H](C)c1ccccc1)[C@@H](C)c1ccccc1)[C@@H](C)c1ccccc1)[C@@H](C)c1ccccc1 [peptoid 52] | – | – | – | 46.9 % MeCN
C[C@H](NCC(=O)N(CCCCN)CC(=O)N(CC(=O)N(CC(=O)N(CCCCN)CC(=O)N(CC(=O)N(CC(=O)N(CCCCN)CC(=O)N(CC(=O)N(CC(=O)N(CCCCN)CC(=O)N(CCCCN)CC(N)=O)[C@@H](C)c1ccccc1)[C@@H](C)c1ccccc1)[C@@H](C)c1ccccc1)[C@@H](C)c1ccccc1)[C@@H](C)c1ccccc1)[C@@H](C)c1ccccc1)c1ccccc1 [peptoid 53] (H-[Nspe][Nlys][Nspe][Nspe][Nlys][Nspe][Nspe][Nlys][Nspe][Nspe][Nlys][Nlys]-NH2) | – | – | – | 48.5 % MeCN
C[C@H](NCC(=O)N(CCCCN)CC(=O)N(CC(=O)N(CC(=O)N(CCCCN)CC(=O)N(CC(=O)N(CC(=O)N(CCCCN)CC(=O)N(CCCCN)CC(=O)N(CC(=O)N(CCCCN)CC(=O)N(CC(N)=O)[C@@H](C)c1ccccc1)[C@@H](C)c1ccccc1)[C@@H](C)c1ccccc1)[C@@H](C)c1ccccc1)[C@@H](C)c1ccccc1)[C@@H](C)c1ccccc1)c1ccccc1 [peptoid 54] (H-[Nspe][Nlys][Nspe][Nspe][Nlys][Nspe][Nspe][Nlys][Nlys][Nspe][Nlys][Nspe]-NH2) | – | – | – | 48.1 % MeCN
C[C@H](NCC(=O)N(CCCCN)CC(=O)N(CC(=O)N(CC(=O)N(CCCCN)CC(=O)N(CCCCN)CC(=O)N(CC(=O)N(CCCCN)CC(=O)N(CC(=O)N(CC(=O)N(CCCCN)CC(=O)N(CC(N)=O)[C@@H](C)c1ccccc1)[C@@H](C)c1ccccc1)[C@@H](C)c1ccccc1)[C@@H](C)c1ccccc1)[C@@H](C)c1ccccc1)[C@@H](C)c1ccccc1)c1ccccc1 [peptoid 55] (H-[Nspe][Nlys][Nspe][Nspe][Nlys][Nlys][Nspe][Nlys][Nspe][Nspe][Nlys][Nspe]-NH2) | – | – | – | 47.2 % MeCN
C[C@H](NCC(=O)N(CCCCN)CC(=O)N(CCCCN)CC(=O)N(CC(=O)N(CCCCN)CC(=O)N(CC(=O)N(CC(=O)N(CCCCN)CC(=O)N(CC(=O)N(CC(=O)N(CCCCN)CC(=O)N(CC(N)=O)[C@@H](C)c1ccccc1)[C@@H](C)c1ccccc1)[C@@H](C)c1ccccc1)[C@@H](C)c1ccccc1)[C@@H](C)c1ccccc1)[C@@H](C)c1ccccc1)c1ccccc1 [peptoid 56] (H-[Nspe][Nlys][Nlys][Nspe][Nlys][Nspe][Nspe][Nlys][Nspe][Nspe][Nlys][Nspe]-NH2) | – | – | – | 48.0 % MeCN
C[C@@H](c1ccccc1)N(CC(=O)N(CCCCN)CC(=O)N(CC(=O)N(CC(=O)N(CCCCN)CC(=O)N(CC(=O)N(CC(=O)N(CCCCN)CC(=O)N(CCCCN)CC(N)=O)[C@@H](C)c1ccccc1)[C@@H](C)c1ccccc1)[C@@H](C)c1ccccc1)[C@@H](C)c1ccccc1)C(=O)CN(C(=O)CN(CCCCN)C(=O)CNCCc1c[nH]c2ccccc12)[C@@H](C)c1ccccc1 [peptoid 57] (H-[Gly(N(CH2)2(3-indolyl))][Nlys][Nspe][Nspe][Nlys][Nspe][Nspe][Nlys][Nspe][Nspe][Nlys][Nlys]-NH2) | – | – | – | 49.1 % MeCN
C[C@@H](c1ccccc1)N(CC(N)=O)C(=O)CN(CCCCN)C(=O)CN(C(=O)CN(CCCCN)C(=O)CN(CCCCN)C(=O)CN(C(=O)CN(C(=O)CN(CCCCN)C(=O)CN(C(=O)CN(C(=O)CN(CCCCN)C(=O)CNCCc1c[nH]c2ccccc12)[C@@H](C)c1ccccc1)[C@@H](C)c1ccccc1)[C@@H](C)c1ccccc1)[C@@H](C)c1ccccc1)[C@@H](C)c1ccccc1 [peptoid 58] | – | – | – | 48.7 % MeCN
C[C@@H](c1ccccc1)N(CC(N)=O)C(=O)CN(CCCCN)C(=O)CN(C(=O)CN(C(=O)CN(CCCCN)C(=O)CN(C(=O)CN(CCCCN)C(=O)CN(CCCCN)C(=O)CN(C(=O)CN(C(=O)CN(CCCCN)C(=O)CNCCc1c[nH]c2ccccc12)[C@@H](C)c1ccccc1)[C@@H](C)c1ccccc1)[C@@H](C)c1ccccc1)[C@@H](C)c1ccccc1)[C@@H](C)c1ccccc1 [peptoid 59] | – | – | – | 47.8 % MeCN
C[C@@H](c1ccccc1)N(CC(N)=O)C(=O)CN(CCCCN)C(=O)CN(C(=O)CN(C(=O)CN(CCCCN)C(=O)CN(C(=O)CN(C(=O)CN(CCCCN)C(=O)CN(C(=O)CN(CCCCN)C(=O)CN(CCCCN)C(=O)CNCCc1c[nH]c2ccccc12)[C@@H](C)c1ccccc1)[C@@H](C)c1ccccc1)[C@@H](C)c1ccccc1)[C@@H](C)c1ccccc1)[C@@H](C)c1ccccc1 [peptoid 60] | – | – | – | 48.6 % MeCN
NC(=O)CN(CCc1c[nH]c2ccccc12)C(=O)CN(CCc1c[nH]c2ccccc12)C(=O)CN(CCCCO)C(=O)CN(CCc1c[nH]c2ccccc12)C(=O)CN(CCc1c[nH]c2ccccc12)C(=O)CN(CCCCO)C(=O)CN(CCc1c[nH]c2ccccc12)C(=O)CN(CCc1c[nH]c2ccccc12)C(=O)CN(CCCCO)C(=O)CN(CCc1c[nH]c2ccccc12)C(=O)CN(CCc1c[nH]c2ccccc12)C(=O)CNCCCCO [peptoid 65] (H-[X1][Gly(N(CH2)2(3-indolyl))][Gly(N(CH2)2(3-indolyl))][X1][Gly(N(CH2)2(3-indolyl))][Gly(N(CH2)2(3-indolyl))][X1][Gly(N(CH2)2(3-indolyl))][Gly(N(CH2)2(3-indolyl))][X1][Gly(N(CH2)2(3-indolyl))][Gly(N(CH2)2(3-indolyl))]-NH2) | – | – | – | 66.7 % MeCN
C[C@@H](c1ccccc1)N(CC(=O)N(CCCCO)CC(=O)N(CCc1c[nH]c2ccccc12)CC(=O)N(CCc1c[nH]c2ccccc12)CC(N)=O)C(=O)CN(CCCCO)C(=O)CN(CCCCO)C(=O)CN(C(=O)CN(C(=O)CN(CCCCO)C(=O)CN(C(=O)CN(C(=O)CNCCCCO)[C@@H](C)c1ccccc1)[C@@H](C)c1ccccc1)[C@@H](C)c1ccccc1)[C@@H](C)c1ccccc1 [peptoid 66] | – | – | – | 64.7 % MeCN
